Legend:
[1] = system: C57BL6/J mice; experiment: Hind limb ischemia in type 2 diabetes model, laser Doppler perfusion; type: in vivo, mouse; conditions: type 2 diabetes mice
Procedure: Male C57BL6/J mice 8-10 weeks of age were obtained from Australian BioResources (Moss Vale, NSW) with 12 hour light/dark cycles and free access to water and mouse chow (Specialty Feeds, Australia). Mice were housed in groups of 2-5 in standard cages within a Physical Containment Level 2 laboratory. For in vivo angiogenesis 16 mice underwent the femoral vascular ligation model. Mice were anaesthetized with 1.5-2% isoflurane vaporized in oxygen and constant body temperature was maintained. All mice received pre-operative and 24-hour post-operative analgesia (carprofen, 5 mg/kg s.c). A small incision (˜15 mm) was made in the hind limb skin directly over the femoral vasculature. A portion of the femoral artery and vein, distal to the origin of the profunda femoris artery and proximal to the saphenous artery, were isolated and two ligations were performed using 6-0 silk sutures. The femoral artery and vein were then excised between the ligation sites 27. […] Hind limb blood flow was assessed prior to ligation (baseline) and immediately after undergoing hind limb ischemia, with subsequent imaging at day 3, 7, 10, 14, 21 and 28 post hind limb ischemia. […] The rate of reperfusion in the hind limb was calculated as a ratio of blood flow in the ischemic versus non-ischemic contralateral limb. […]

[2] = system: eNOS; experiment: Immunoblot of eNOS expression and serine 1177 phosphorylation in ischemic hind limb; type: in vivo, mouse; conditions: ischemic hindlimb, type 1 diabetes model
Procedure: Gastrocnemius samples were stored at −80° C. and then mechanically homogenized in ice-cold lysis buffer containing 150 mmol/L NaCl, 200 mmol/L Tris-HCl (pH 8.0), 1% Triton X-100, 0.5% deoxycholic acid, 0.1% SDS, N-ethylmaleimide (25 mM) and protease inhibitors (cOmplete™ EDTA-free, Roche Diagnostics). 30 μg of protein lysate was denatured and run under reducing conditions on SDS-PAGE (Bolt™ pre-cast gels and reagents, Thermofisher Scientific, Australia) and transferred onto Immobilon polyvinylidene fluoride membrane (Merck Millipore, Australia). Membranes were incubated in primary antibodies directed at determining protein expression of the following: Nox isoforms (anti-Nox 2, 1:5000; Abcam, Australia; anti-Nox-4, 1:5000; Abcam, Australia); reactive nitrogen species (anti-nitrotyrosine, 1:1000; Abcam, Australia); and both expression and phosphorylation of eNOS (anti Phospho eNOS serine 1177, 1:1000, Cell Signaling Technology, USA; anti-eNOS 1:1000, BD Biosciences, USA) and Akt (anti Phospho Akt 1:1000, Akt 1:1000, Cell Signaling Technology, USA). Specific secondary antibodies recognizing rabbit or mouse primary antibodies were used (IRDye®, Licor; 1:20,000, USA). Membranes were detected using an Odyssey imaging platform (Licor, USA).

[3] = system: Nox 4; experiment: Immunoblot of hind limb Nox 4 expression; type: in vivo, mouse
Procedure: Hind limb tissue including the gastrocnemius and adductor muscles were isolated and collected at 14 or 28 days. Tissues were separated and implanted in OCT or placed in cryovials and snap-frozen in liquid nitrogen or were fixed in 10% formalin for 24-hours and then moved to 70% ethanol for storage.
Gastrocnemius samples were stored at −80° C. and then mechanically homogenized in ice-cold lysis buffer containing 150 mmol/L NaCl, 200 mmol/L Tris-HCl (pH 8.0), 1% Triton X-100, 0.5% deoxycholic acid, 0.1% SDS, N-ethylmaleimide (25 mM) and protease inhibitors (cOmplete™ EDTA-free, Roche Diagnostics). 30 μg of protein lysate was denatured and run under reducing conditions on SDS-PAGE (Bolt™ pre-cast gels and reagents, Thermofisher Scientific, Australia) and transferred onto Immobilon polyvinylidene fluoride membrane (Merck Millipore, Australia). […] Membranes were detected using an Odyssey imaging platform (Licor, USA).

[4] = system: HUVECs; experiment: Cell migration by scratch assay in HUVECs (CL 316,243); type: cell-based, human

C[C@H](Cc1ccc2c(c1)OC(C(=O)[O-])(C(=O)[O-])O2)NC[C@H](O)c1cccc(Cl)c1.[Na+].[Na+] [CL 316,243]
reperfusion post-ischemia [1]: augmented reperfusion
eNOS expression [2]: unaltered
phosphorylation of eNOS at serine 1177 [2]: did not appear to be affected
Nox 4 hind limb protein expression ([3]; ischemic limb, non-diabetic mice, n=4, P>0.05): 0.88±0.28 fold change from vehicle
diabetes-induced elevation in Nox4 expression ([3]; type 1 diabetic mice, ischemic and non-ischemic limb, back to control levels): markedly reduced
closure of denuded zone ([4]; by 24 hours at the higher concentrations): > 90%
migration of HUVECs into the denuded zone ([4]; scratch assay over 24 hours, 1-1000 ng/ml, vs vehicle control): significantly increased migration
